BigSolDB 2.1

[NH3+]O.[NH3+]O.[O-]n1nnnc1-c1nnnn1[O-]
solubility (mole fraction)
Conditions | 298.15 K | 303.15 K | 308.15 K | 313.15 K | 318.15 K | 323.15 K | 328.15 K | 333.15 K
in acetic acid | 7.44e-05 | 8.86e-05 | 0.000105 | 0.000125 | 0.000146 | 0.000171 | 0.000199 | 0.000231
in ethanol | 1.35e-05 | 1.54e-05 | 1.76e-05 | 2.01e-05 | 2.27e-05 | 2.56e-05 | 2.88e-05 | 3.24e-05
in formic acid | 0.00144 | 0.00163 | 0.00183 | 0.00205 | 0.00229 | 0.00254 | 0.00283 | 0.00313
in water | 0.000128 | 0.000156 | 0.00019 | 0.000228 | 0.000274 | 0.000325 | 0.000385 | 0.000456
